The target in assay [1] is HCV NS3/4A protease genotype 1b (Hepatitis C virus genotype 1b, UniProt P26663). Description: HCV NS3/4A protease time-resolved fluorescence (TRF) assay, Ki against genotype 1b. The conditions noted are these: IC50 [gt-1b] (nM), NS3/4A genotype 1b, enzyme 0.2 nM. In kind it is biochemical. The method in brief:
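Time-resolved fluorescence readout of NS3/4A cleavage of 25 nM europium-labelled peptide over 2.5 h at room temperature, enzyme levels set for signal/background 10–30 (0.2, 0.4, 0.025 nM for 1b, A156T, 3a). Ki by IC50=Ki(1+[S]/KM).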

For the next assay, the system named is HCV genotype 1b replicon. Kind of assay: HCV replicon assay, genotype 1b replicon EC50. It counts as cell-based, Hepatitis C virus. The conditions noted are these: Hepatitis C virus, genotype 1b replicon, read-out: EC50 [gt-1b]. The method in brief: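 Readout was replicon RNA copy number, by 32P-probe protection or TaqMan normalized to cellular cyclophilin A RNA, or luciferase activity for luciferase:Neo^r fusion lines. Cells were exposed to serially diluted compound for 24-48 hours without G418, then washed and lysed. EC50 derived from four-parameter fit relative to DMSO.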

13 compounds from US8987195B2 (priority 2012, dated 2015) can be followed below.

Where two headings read alike, the source gives them in different places.

A word on the IC50: it is the midpoint of a concentration-inhibition curve. By EC50 is commonly meant the concentration needed to bring the measured effect to its halfway point. With `COc1ccc2c3c(c(C4CC4)nc2c1)O[C@]1(CC3)C[C@H]2C(=O)N[C@]3(C(=O)NS(=O)(=O)C4(C)CC4)C[C@H]3/C=C\CCCCC[C@H](NC(=O)O[C@H]3C[C@@H](C)CC[C@@H]3C(C)C)C(=O)N2C1` [Example 275, (1S,2R,5S)-5-methyl-2-(propan-2-yl)cyclohexyl [(2R,6S,12Z,13aS,14aR,16aS)-5′-cyclopropyl-8′-methoxy-14a-{[(1-methylcyclopropyl)sulfonyl]carbamoyl}-5,16-dioxo-1,1′,2′,5,6,7,8,9,10,11,13a,14,14a,15,16,16a-hexadecahydrospiro[cyclopropa[e]pyrrolo[1,2-a][1,4]diazacyclopentadecine-2,3′-pyrano[2,3-c]quinolin]-6-yl]carbamate], the IC50 in assay [1] (HCOOH salt) came to 11.3 nM. Further, the concentration for a half-maximal effect (EC50) in the assay with HCV genotype 1b replicon (HCOOH salt) was 39.5 nM.

As to `COc1ccc2c3c(c(C4CC4)nc2c1)O[C@]1(CC3)C[C@H]2C(=O)N[C@]3(C(=O)NS(=O)(=O)C4(C)CC4)C[C@H]3/C=C\CCCCC[C@H](NC(=O)O[C@@H]3C[C@H](C)CC[C@H]3C(C)C)C(=O)N2C1` [Example 276, (1R,2S,5R)-5-methyl-2-(propan-2-yl)cyclohexyl [(2R,6S,12Z,13aS,14aR,16aS)-5′-cyclopropyl-8′-methoxy-14a-{[(1-methylcyclopropyl)sulfonyl]carbamoyl}-5,16-dioxo-1,1′,2′,5,6,7,8,9,10,11,13a,14,14a,15,16,16a-hexadecahydrospiro[cyclopropa[e]pyrrolo[1,2-a][1,4]diazacyclopentadecine-2,3′-pyrano[2,3-c]quinolin]-6-yl]carbamate], the IC50 in assay [1] (HCOOH salt) came to 3.97 nM. Also, the EC50 in the assay on HCV genotype 1b replicon (HCOOH salt) came to 104 nM.

`COc1ccc2c3c(c(C4CC4)nc2c1)O[C@]1(CC3)C[C@H]2C(=O)N[C@]3(C(=O)NS(=O)(=O)C4(C)CC4)C[C@H]3/C=C\CCCCC[C@H](NC(=O)OCCF)C(=O)N2C1` [Example 277, 2-fluoroethyl [(2R,6S,12Z,13aS,14aR,16aS)-5′-cyclopropyl-8′-methoxy-14a-{[(1-methylcyclopropyl)sulfonyl]carbamoyl}-5,16-dioxo-1,1′,2′,5,6,7,8,9,10,11,13a,14,14a,15,16,16a-hexadecahydrospiro[cyclopropa[e]pyrrolo[1,2-a][1,4]diazacyclopentadecine-2,3′-pyrano[2,3-c]quinolin]-6-yl]carbamate]: the IC50 in assay [1] (HCOOH salt) is 1.05 nM. In the assay with HCV genotype 1b replicon (HCOOH salt), the 50% effective concentration (EC50) was determined as 81.6 nM.

Take `COc1ccc2c3c(c(C4CC4)nc2c1)O[C@]1(CC3)C[C@H]2C(=O)N[C@]3(C(=O)NS(=O)(=O)C4(C)CC4)C[C@H]3/C=C\CCCCC[C@H](NC(=O)OC3CCOC3)C(=O)N2C1` (stereo partly drawn) [Example 278, tetrahydrofuran-3-yl [(2R,6S,12Z,13aS,14aR,16aS)-5′-cyclopropyl-8′-methoxy-14a-{[(1-methylcyclopropyl)sulfonyl]carbamoyl}-5,16-dioxo-1,1′,2′,5,6,7,8,9,10,11,13a,14,14a,15,16,16a-hexadecahydrospiro[cyclopropa[e]pyrrolo[1,2-a][1,4]diazacyclopentadecine-2,3′-pyrano[2,3-c]quinolin]-6-yl]carbamate]: in assay [1] (HCOOH salt), the IC50 stood at 0.027 nM. In addition, the EC50 with HCV genotype 1b replicon (HCOOH salt) is 12.4 nM.

Consider `Cc1nc2ccc(OC(F)F)cc2c2c1O[C@]1(CC2)C[C@H]2C(=O)N[C@]3(C(=O)NS(=O)(=O)C4(C)CC4)C[C@H]3/C=C\CCCCC[C@H](NC(=O)OCC(C)(C)C)C(=O)N2C1` [Example 280, 2,2-dimethylpropyl [(2R,6S,12Z,13aS,14aR,16aS)-9′-(difluoromethoxy)-5′-methyl-14a-{[(1-methylcyclopropyl)sulfonyl]carbamoyl}-5,16-dioxo-1,1′,2′,5,6,7,8,9,10,11,13a,14,14a,15,16,16a-hexadecahydrospiro[cyclopropa[e]pyrrolo[1,2-a][1,4]diazacyclopentadecine-2,3′-pyrano[2,3-c]quinolin]-6-yl]carbamate], for which, in assay [1], the IC50 is 0.005 nM. For the same compound, the EC50 in the assay with HCV genotype 1b replicon was determined as 2.84 nM.

`COc1ccc2nc(C(C)C)c3c(c2c1)C(F)(F)C[C@]1(C[C@H]2C(=O)N[C@]4(C(=O)NS(=O)(=O)C5(C)CC5)C[C@H]4/C=C\CCCCC[C@H](NC(=O)OC(C)(C)CCS(=O)(=O)C(C)C)C(=O)N2C1)O3` [Example 281, 2-methyl-4-(propan-2-ylsulfonyl)butan-2-yl [(2S,6S,12Z,13aS,14aR,16aS)-1′,1′-difluoro-9′-methoxy-14a-{[(1-methylcyclopropyl)sulfonyl]carbamoyl}-5,16-dioxo-5′-(propan-2-yl)-1,1′,2′,5,6,7,8,9,10,11,13a,14,14a,15,16,16a-hexadecahydrospiro[cyclopropa[e]pyrrolo[1,2-a][1,4]diazacyclopentadecine-2,3′-pyrano[2,3-c]quinolin]-6-yl]carbamate] had an IC50 in assay [1] of 0.06 nM. Further, in the assay with HCV genotype 1b replicon, the 50% effective concentration (EC50) amounted to 10.8 nM.

Turning to `Cc1nc2ccccc2c2c1O[C@]1(CC2)C[C@H]2C(=O)N[C@]3(C(=O)NS(=O)(=O)C4(C)CC4)C[C@H]3/C=C\CCCCC[C@H](NC(=O)NC(C)C)C(=O)N2C1` [Example 282, (2R,6S,12Z,13aS,14aR,16aS)-5′-methyl-N-[(1-methylcyclopropyl)sulfonyl]-5,16-dioxo-6-[(propan-2-ylcarbamoyl)amino]-1,1′,2′,6,7,8,9,10,11,13a,14,15,16,16a-tetradecahydrospiro[cyclopropa[e]pyrrolo[1,2-a][1,4]diazacyclopentadecine-2,3′-pyrano[2,3-c]quinoline]-14a(5H)-carboxamide], the IC50 in assay [1] (HCOOH salt) was 0.018 nM. The EC50 in the assay with HCV genotype 1b replicon (HCOOH salt) came out at 43.6 nM.

Regarding `Cc1nc2ccccc2c2c1O[C@]1(CC2)C[C@H]2C(=O)N[C@]3(C(=O)NS(=O)(=O)C4(C)CC4)C[C@H]3/C=C\CCCCC[C@H](NC(=O)NC3CCCC3)C(=O)N2C1` [Example 283, (2R,6S,12Z,13aS,14aR,16aS)-6-[(cyclopentylcarbamoyl)amino]-5′-methyl-N-[(1-methylcyclopropyl)sulfonyl]-5,16-dioxo-1,1′,2′,6,7,8,9,10,11,13a,14,15,16,16a-tetradecahydrospiro[cyclopropa[e]pyrrolo[1,2-a][1,4]diazacyclopentadecine-2,3′-pyrano[2,3-c]quinoline]-14a(5H)-carboxamide], in assay [1] (HCOOH salt), the IC50 amounted to 0.012 nM. Besides, the EC50 in the assay with HCV genotype 1b replicon (HCOOH salt) amounted to 19 nM.

On to `Cc1nc2ccccc2c2c1O[C@]1(CC2)C[C@H]2C(=O)N[C@]3(C(=O)NS(=O)(=O)C4(C)CC4)C[C@H]3/C=C\CCCCC[C@H](NC(=O)NCc3ccccc3)C(=O)N2C1` [Example 284, (2R,6S,12Z,13aS,14aR,16aS)-6-[(benzylcarbamoyl)amino]-5′-methyl-N-[(1-methylcyclopropyl)sulfonyl]-5,16-dioxo-1,1′,2′,6,7,8,9,10,11,13a,14,15,16,16a-tetradecahydrospiro[cyclopropa[e]pyrrolo[1,2-a][1,4]diazacyclopentadecine-2,3′-pyrano[2,3-c]quinoline]-14a(5H)-carboxamide], for which the IC50 in assay [1] (HCOOH salt) turned out to be 0.038 nM. In addition, the EC50 in the assay with HCV genotype 1b replicon (HCOOH salt) came out at 58.7 nM.

Turning to `Cc1nc2ccccc2c2c1O[C@]1(CC2)C[C@H]2C(=O)N[C@]3(C(=O)NS(=O)(=O)C4(C)CC4)C[C@H]3/C=C\CCCCC[C@H](NC(=O)NC3CCCCC3)C(=O)N2C1` [Example 285, (2R,6S,12Z,13aS,14aR,16aS)-6-[(cyclohexylcarbamoyl)amino]-5′-methyl-N-[(1-methylcyclopropyl)sulfonyl]-5,16-dioxo-1,1′,2′,6,7,8,9,10,11,13a,14,15,16,16a-tetradecahydrospiro[cyclopropa[e]pyrrolo[1,2-a][1,4]diazacyclopentadecine-2,3′-pyrano[2,3-c]quinoline]-14a(5H)-carboxamide], the IC50 in assay [1] (HCOOH salt) stood at 0.002 nM. Moreover, in the assay on HCV genotype 1b replicon (HCOOH salt), the EC50 is 10.3 nM.

In turn, `CCNC(=O)N[C@H]1CCCCC/C=C\[C@@H]2C[C@@]2(C(=O)NS(=O)(=O)C2(C)CC2)NC(=O)[C@@H]2C[C@]3(CCc4c(c(C)nc5ccccc45)O3)CN2C1=O` [Example 286, (2R,6S,12Z,13aS,14aR,16aS)-6-[(ethylcarbamoyl)amino]-5′-methyl-N-[(1-methylcyclopropyl)sulfonyl]-5,16-dioxo-1,1′,2′,6,7,8,9,10,11,13a,14,15,16,16a-tetradecahydrospiro[cyclopropa[e]pyrrolo[1,2-a][1,4]diazacyclopentadecine-2,3′-pyrano[2,3-c]quinoline]-14a(5H)-carboxamide] showed an IC50 in assay [1] of 0.015 nM. For the same compound, the EC50 in the assay on HCV genotype 1b replicon was 119 nM.

For the compound `CCCCNC(=O)N[C@H]1CCCCC/C=C\[C@@H]2C[C@@]2(C(=O)NS(=O)(=O)C2(C)CC2)NC(=O)[C@@H]2C[C@]3(CCc4c(c(C)nc5ccccc45)O3)CN2C1=O` [Example 287, (2R,6S,12Z,13aS,14aR,16aS)-6-[(butylcarbamoyl)amino]-5′-methyl-N-[(1-methylcyclopropyl)sulfonyl]-5,16-dioxo-1,1′,2′,6,7,8,9,10,11,13a,14,15,16,16a-tetradecahydrospiro[cyclopropa[e]pyrrolo[1,2-a][1,4]diazacyclopentadecine-2,3′-pyrano[2,3-c]quinoline]-14a(5H)-carboxamide], the IC50 in assay [1] (HCOOH salt) amounted to 0.013 nM. Besides, the EC50 in the assay with HCV genotype 1b replicon (HCOOH salt) is 23 nM.

On to `Cc1nc2ccccc2c2c1O[C@]1(CC2)C[C@H]2C(=O)N[C@]3(C(=O)NS(=O)(=O)C4(C)CC4)C[C@H]3/C=C\CCCCC[C@H](NC(=O)NCCc3ccccc3)C(=O)N2C1` [Example 288, (2R,6S,12Z,13aS,14aR,16aS)-5′-methyl-N-[(1-methylcyclopropyl)sulfonyl]-5,16-dioxo-6-{[(2-phenylethyl)carbamoyl]amino}-1,1′,2′,6,7,8,9,10,11,13a,14,15,16,16a-tetradecahydrospiro[cyclopropa[e]pyrrolo[1,2-a][1,4]diazacyclopentadecine-2,3′-pyrano[2,3-c]quinoline]-14a(5H)-carboxamide], for which the 50% inhibitory concentration (IC50) in assay [1] (HCOOH salt) stood at 0.131 nM. For the same compound, in the assay on HCV genotype 1b replicon (HCOOH salt), the EC50 amounted to 614 nM.
